Measured values: the supplement of paper PMC3937590

How the values were obtained:
Experiment in all cases: -log10 GI50 (growth inhibition 50%) (-log10(M)); higher = more potent growth inhibition
BT549 = system: BT549
In short: (§1)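 Breast cancer cell lines were treated with each compound for 72 hours at nine doses in 1:5 serial dilution, in triplicate, and luminescence was read against a time-zero plate. A Gompertz curve was fitted to the dose-response data by nonlinear least squares to obtain GI50, the molar concentration giving the set level of growth inhibition, which is reported as its negative logarithm. The logarithm is base 10, and values equal to the top dose carry a < qualifier.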

HCC1954 = system: HCC1954
In short: as §1

MDAMB361 = system: MDAMB361
In short: as §1

UACC812 = system: UACC812
In short: as §1

ZR75B = system: ZR75B
In short: as §1

HCC1428 = system: HCC1428
In short: as §1

MCF12A = system: MCF12A
In short: as §1

MX1 = system: MX1
In short: as §1

MDAMB157 = system: MDAMB157
In short: as §1

HCC70 = system: HCC70
In short: as §1

LY2 = system: LY2
In short: as §1

HCC1419 = system: HCC1419
In short: as §1

184A1 = system: 184A1
In short: as §1

HCC1937 = system: HCC1937
In short: as §1

T47D_KBluc = system: T47D_KBluc
In short: as §1

MDAMB231 = system: MDAMB231
In short: as §1

SUM185PE = system: SUM185PE
In short: as §1

HCC2185 = system: HCC2185
In short: as §1

SUM52PE = system: SUM52PE
In short: as §1

184B5 = system: 184B5
In short: as §1

Row | -log10 GI50 (BT549) | -log10 GI50 (HCC1954) | -log10 GI50 (MDAMB361) | -log10 GI50 (HCC1428) | -log10 GI50 (MDAMB157) | -log10 GI50 (HCC1419) | -log10 GI50 (HCC1937) | -log10 GI50 (T47D_KBluc) | -log10 GI50 (MDAMB231) | -log10 GI50 (HCC2185) | SMILES | -log10 GI50 (UACC812) | -log10 GI50 (ZR75B) | -log10 GI50 (MCF12A) | -log10 GI50 (MX1) | -log10 GI50 (HCC70) | -log10 GI50 (LY2) | -log10 GI50 (184A1) | -log10 GI50 (SUM185PE) | -log10 GI50 (SUM52PE) | -log10 GI50 (184B5)
1 | < 4.48 | 7.28 | 6.68 | 5.51 | 6.55 | 7.2 | < 4.48 | < 4.48 | < 4.48 | 7.24 | Cn1c(=O)n(-c2ccc(C(C)(C)C#N)cc2)c2c3cc(-c4cnc5ccccc5c4)ccc3ncc21 [BEZ235] | 5.69 | 6.85 | 6.33 | < 4.48 | 6.8 | 6.8 | 7.19 | < 4.48 | 5.51 | 
2 | 6.38 | 6.88 | 7.36 | 6.51 | 6.13 | 7.58 | 6.92 | 7.25 | 6.35 | 7.12 | COc1ccc(-c2cc3c(C)nc(N)nc3n([C@H]3CC[C@H](OCCO)CC3)c2=O)cn1 | 7.74 | 7.28 | 6.39 | 7.41 | 7.31 | 7.04 | 6.96 | 6.77 | 7.26 | 6.65
3 | 4.39 | 5.55 | < 4.18 | 4.75 | < 4.18 | 5.2 | 4.41 | < 4.18 | 4.33 | 4.71 | C#Cc1cccc(Nc2ncnc3cc(OCCOC)c(OCCOC)cc23)c1 [Erlotinib] | 4.91 | < 4.18 | 6.27 | 5.16 | 5.76 | < 4.18 | 6.64 | < 4.18 | 4.98 | 6.32
4 | 4.6 | 4.34 | 4.58 | 4.87 | 4.26 | 4.54 | 4.27 | 4.43 |  | 4.84 | NS(=O)(=O)c1ccc(Nc2nc(OCC3CCCCC3)c3[nH]cnc3n2)cc1 [NU6102] | 4.42 | 4.85 | 4.8 | 5.47 | 4.71 | 4.56 | 5.22 | 5.02 | 5.27 | 5.39
5 | 6.91 | 6.43 | 7.46 | 6.98 | 7.29 | 7.23 | 6.72 | 6.88 | 6.68 | 7.16 | Cc1[nH]c2ccccc2c1CCNCc1ccc(/C=C/C(=O)NO)cc1 [LBH589] | 6.89 | 7.08 | 6.35 | 7.47 | 7.11 |  | 6.56 | 7.11 | 6.83 | 6.99
6 | 5.01 | < 4.48 | 4.65 | < 4.18 | < 4.18 | 4.77 | < 4.18 | < 4.18 | 4.58 | 5.62 | Cc1cncc2cccc(S(=O)(=O)N3CCCN(C(=O)CN)C[C@@H]3C)c12 [Glycyl H1152] | 4.59 | < 4.18 | 4.9 | 5.96 | 6.04 | 6.28 | < 4.18 |  | 5.1 | < 4.18
7 | 5.33 | 8.45 | 6.22 | 7.29 | < 3.78 | 8.36 | 5.91 | 5.65 | 5.78 | 8.79 | CO[C@H]1C[C@@H]2CC[C@@H](C)[C@@](O)(O2)C(=O)C(=O)N2CCCC[C@H]2C(=O)O[C@H]([C@H](C)C[C@@H]2CC[C@@H](O)[C@H](OC)C2)CC(=O)[C@H](C)/C=C(\C)[C@@H](O)[C@@H](OC)C(=O)[C@H](C)C[C@H](C)/C=C/C=C/C=C/1C [Rapamycin] | 7.33 |  | 7.08 | 5.77 | 6.92 |  | 6.72 | 6.04 | 8.52 | < 4.48
8 | < 4.78 | 5.58 | 5.33 | < 4.78 | < 4.78 | 6.61 | < 4.78 | < 4.78 | < 4.78 | < 4.78 | CS(=O)(=O)CCNCc1ccc(-c2ccc3ncnc(Nc4ccc(OCc5cccc(F)c5)c(Cl)c4)c3c2)o1 [Lapatinib] | 6.34 | < 4.78 |  | 5.27 | 5.4 |  | 5.86 | < 4.78 | < 4.78 | 5.24
9 | 6.89 | < 4.18 | 6.56 | 4.97 | 7.22 | < 4.18 | 6.89 | 7 | 5.85 | < 4.18 | CCN(CC)C(=S)SSC(=S)N(CC)CC [Disulfiram] | 7.03 |  | 4.97 | 4.54 | < 4.18 | 5.01 | 4.9 | < 4.18 | 4.53 | 4.93
10 | 6.61 | 6.66 | 6.56 | 5.25 | 4.63 | 7.27 | 6.36 | 4.56 |  | 8.19 | CO[C@H]1C[C@@H]2CC[C@@H](C)[C@@](O)(O2)C(=O)C(=O)N2CCCC[C@H]2C(=O)O[C@H]([C@H](C)C[C@@H]2CC[C@@H](OC(=O)C(C)(CO)CO)[C@H](OC)C2)CC(=O)[C@H](C)/C=C(\C)[C@@H](O)[C@@H](OC)C(=O)[C@H](C)C[C@H](C)/C=C/C=C/C=C/1C [Temsirolimus] | 6.21 | 6.97 | 5.03 | 5.45 | 6.49 | 6.85 | 6.3 | < 3.88 | 8.82 | 5.29
11 | 5.47 | < 4.48 | 5.41 | 4.56 | 5.66 | 5.32 | 5.23 | < 4.3 | < 4.3 | 5.96 | COc1cc2c(Nc3ccc(NC(=O)c4ccccc4)cc3)ncnc2cc1OCCCN1CCOCC1 | 5.41 |  | 5.12 | 6.35 | 5.85 |  | < 4.3 | 4.5 | 5.46 | < 4.3
12 | < 4.18 | < 4.48 | < 4.18 | < 4.48 | < 4.18 | < 4.18 | < 4.48 | < 4.18 | < 4.18 | < 4.48 | CSCC[C@H](NC(=O)[C@H](Cc1ccccc1)NC[C@@H](NC[C@@H](N)CS)C(C)C)C(=O)O [FTase inhibitor I] | < 4.48 | < 4.48 | < 4.18 | < 4.48 | < 4.18 | < 4.48 | < 4.18 |  | 4.93 | < 4.18
13 | 4.64 | < 3.78 | < 3.78 | 4.41 | 4.28 | 4.09 | 4.46 | 4 | 4.75 | 4.3 | O=c1cc(-c2ccccc2)oc2cc(O)c(O)c(O)c12 [Baicalein] | 4.19 | 4.36 | 4.78 | 4.66 | 4.31 | 4.19 | < 3.78 |  | 4.42 | < 3.78
14 | 7.32 | 8.04 | 8.82 | 7.57 | 6.51 | 9.48 | 7.57 | 7.71 | 6.37 | 8.04 | COc1ncc(-c2ccc3nccc(-c4ccnnc4)c3c2)cc1NS(=O)(=O)c1ccc(F)cc1F | 8.49 | 8.31 | 8.09 | 8.39 | 8.13 | 7.94 | 8.77 |  | 8.46 | 8.23
15 | 5.95 | 5.92 | 5.9 | 5.43 | 5.88 | 5.97 | 5.84 | < 4.48 | 5.55 | 5.3 | COc1cc(Nc2c(C#N)cnc3cc(OCCCN4CCN(C)CC4)c(OC)cc23)c(Cl)cc1Cl [Bosutinib] | 5.56 | 5.15 | 5.99 | 6.38 | 6.03 | 5.66 | 6.3 |  | 5.85 | 6.26
16 | < 4.48 | 5.46 | 4.78 | 5.34 | < 4.48 | 4.69 | < 4.18 | < 4.48 | < 4.48 | 4.91 | O=C1NC(=O)/C(=C/c2ccc(-c3ccc(F)cc3O)o2)S1 | 4.88 | 5.04 | 4.68 | 4.66 | 4.67 | 4.51 | 5.43 |  | 4.69 | 4.65
17 | < 4 | < 4.48 | 4.67 | 4.56 | < 4 | 4.88 | < 4 | < 4 |  | < 4 | Nc1[nH]nc2nnc(-c3c(-c4ccccc4)nn4ccccc34)cc12 | 4.56 | 4.56 | < 4 | < 4.48 | 4.54 |  | 4.61 | 4.43 | 4.49 | 4.89
18 | < 4.3 | 4.82 | 4.39 | < 4.3 | 5.16 | < 4.3 | < 4.3 | < 4.48 |  | 5.71 | CC(C(C)N1CC(=O)NC(=O)C1)N1CC(=O)NC(=O)C1 (stereo unspecified) [ICRF-193] | < 4.48 | 6.6 | 6.71 | 5.95 | < 4.3 | 5.97 | < 4.3 | < 4.3 | 5.6 | < 4.48
19 | 7.04 |  | 6.62 | 6.46 | 6.76 | 6.8 | 6.82 | 6.77 | 6.59 | 6.66 | CC(C)C[C@@H](C=O)NC(=O)[C@H](CC(C)C)NC(=O)[C@H](CC(C)C)NC(=O)OCc1ccccc1 [MG-132] | 6.72 | 6.4 | 7.32 | 6.88 | 7.19 | 6.49 | 7.73 | 7.01 | 7.12 | 7.79
20 | 3.83 | 3.95 | 4.26 | 4.42 | 4.01 | 4.27 |  | 3.99 | 4.11 | 4.28 | O=C(CCCCCCC(=O)Nc1ccccc1)NO [Vorinostat] | 4.37 | 4.02 | 3.77 | 4.06 | 4.46 | 3.86 | 3.87 | 4.42 | 4.73 | 3.84
21 | 6.88 |  | 8.35 | 5.06 | 4.63 | 8.4 | 6.1 | 5 | 4.27 | 7.93 | CO[C@H]1C[C@@H]2CC[C@@H](C)[C@@](O)(O2)C(=O)C(=O)N2CCCC[C@H]2C(=O)O[C@H]([C@H](C)C[C@@H]2CC[C@@H](OCCO)[C@H](OC)C2)CC(=O)[C@H](C)/C=C(\C)[C@@H](O)[C@@H](OC)C(=O)[C@H](C)C[C@H](C)/C=C/C=C/C=C/1C [Everolimus] | 7.49 |  | 4.87 | 5.33 | 6.96 | 7.52 | 6.16 | 5.8 | 7.73 | 5.55
22 | 5.45 |  | 6.65 | 4.94 | 5.22 | 7.72 |  | 6.48 | 5.09 | > 9.77 | Cn1ncc(Cl)c1-c1cc(C(=O)N[C@H](CN)Cc2ccc(F)c(F)c2)oc1Cl | 7.18 |  | 5.57 | 8.11 | 8.68 | 6.62 |  | 6.28 | 6.3 | 
